Measurements: paper PMC5401710, “Peptides with 6-Aminohexanoic Acid: Synthesis and Evaluation as Plasmin Inhibitors” (International Journal of Peptide Research and Therapeutics, 2016)
One block for each molecule: values may come before it. Non-standard residues stand in square brackets, D forms with d. Residues, ends and D or L forms follow the SMILES beside them. Ahx = NCCCCCC(=O)O

Key:
[1] = biological target: T1, uPA (Homo sapiens, UniProt P00749); assay: Amidolytic activity of urokinase (substrate S-2444); type: biochemical; details: for IC50: amidolytic activity, S-2444, tris buffer pH 8.8
T1 construct: purchased Sigma (Schnelldorf, Germany)
Procedure: (§1) Determination of amidolytic activity was performed as previously described by (Okada et al. [1988]). Buffer and 0.1 ml of enzyme solution was added to 0.2 ml of examined compound dissolved in 0.15 M NaCl (1–15) (as control 0.15 M NaCl). The buffer and the enzyme solution included: • tris buffer—0.6 ml (pH 8.8), enzyme: urokinase (50 units/ml), synthetic substrate: S-2444 (0.1 ml, 3 mM); • tris buffer—0.5 ml (pH 8.4), enzyme: thrombin (1 units/ml), synthetic substrate: S-2238 (0.2 ml, 0.75 mM); • tris buffer—0.5 ml (pH 7.4), enzyme: plasmin (0.4 units/ml), synthetic substrate: S-2251 (0.2 ml, 3 mM); • […]—0.5 ml (pH 7.5), enzyme: trypsin (0.4 units/ml), synthetic substrate: Bzl-L-Arg–pNA.HCl (0.2 ml, 8 mM); • tris buffer—0.6 ml (pH 9.0), enzyme: kallikrein (3 units/ml), synthetic substrate: S-2266 (0.1 ml, 75 mM); • tris buffer—0.6 ml (pH 8.4), enzyme: t-PA ([…]), synthetic substrate: S-2288 (0.1 ml, 10 mM).
(§2) IC50 values were determined (IC50, Inhibitor Concentration, the concentration at which enzyme activity is inhibited by 50 %). Our results were compared with the 6-aminohexanoic acid.

[2] = biological target: T2, thrombin (Bos taurus, UniProt P00735); assay: Amidolytic activity of thrombin (substrate S-2238); type: biochemical; details: for IC50: amidolytic activity, S-2238, tris buffer pH 8.4
T2 construct: purchased Lubelska Wytwórnia Szczepionek (Lublin, Poland)
Procedure: as §1, §2

[3] = biological target: T3, tPA (Homo sapiens, UniProt P00750); assay: Amidolytic activity of t-PA (substrate S-2288); type: biochemical; details: for IC50: amidolytic activity, S-2288, tris buffer pH 8.4
T3 construct: purchased Boehringer Ingelheim GmbH (Ingelheim, Germany)
T3 sequence (P00750 36-562): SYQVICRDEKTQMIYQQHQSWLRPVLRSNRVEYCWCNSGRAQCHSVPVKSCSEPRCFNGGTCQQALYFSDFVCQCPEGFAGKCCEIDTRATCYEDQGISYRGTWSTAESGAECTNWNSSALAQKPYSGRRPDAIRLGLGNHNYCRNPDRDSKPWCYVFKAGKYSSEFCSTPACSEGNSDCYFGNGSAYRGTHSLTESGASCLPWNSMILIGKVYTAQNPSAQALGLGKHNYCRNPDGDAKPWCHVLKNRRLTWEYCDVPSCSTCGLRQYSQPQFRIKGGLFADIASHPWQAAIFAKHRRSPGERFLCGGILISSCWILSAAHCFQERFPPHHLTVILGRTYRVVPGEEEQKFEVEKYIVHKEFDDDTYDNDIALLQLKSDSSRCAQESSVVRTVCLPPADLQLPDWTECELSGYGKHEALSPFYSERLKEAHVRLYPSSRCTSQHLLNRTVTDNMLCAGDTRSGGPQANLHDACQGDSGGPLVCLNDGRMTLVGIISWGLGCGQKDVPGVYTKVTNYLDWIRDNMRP
Procedure: as §1, §2

[4] = biological target: T4, plasmin (Homo sapiens, UniProt P00747); assay: Amidolytic activity of plasmin (substrate S-2251); type: biochemical; details: for IC50: amidolytic activity, S-2251, tris buffer pH 7.4
T4 construct: The amino-terminal heavy chain of PL consists of five kringle domains; The C-terminal light chain of plasmin is a typical serine protease (SP); purchased Chromogenix (Milano, Italy)
T4 sequence (P00747 97-580 limits assumed): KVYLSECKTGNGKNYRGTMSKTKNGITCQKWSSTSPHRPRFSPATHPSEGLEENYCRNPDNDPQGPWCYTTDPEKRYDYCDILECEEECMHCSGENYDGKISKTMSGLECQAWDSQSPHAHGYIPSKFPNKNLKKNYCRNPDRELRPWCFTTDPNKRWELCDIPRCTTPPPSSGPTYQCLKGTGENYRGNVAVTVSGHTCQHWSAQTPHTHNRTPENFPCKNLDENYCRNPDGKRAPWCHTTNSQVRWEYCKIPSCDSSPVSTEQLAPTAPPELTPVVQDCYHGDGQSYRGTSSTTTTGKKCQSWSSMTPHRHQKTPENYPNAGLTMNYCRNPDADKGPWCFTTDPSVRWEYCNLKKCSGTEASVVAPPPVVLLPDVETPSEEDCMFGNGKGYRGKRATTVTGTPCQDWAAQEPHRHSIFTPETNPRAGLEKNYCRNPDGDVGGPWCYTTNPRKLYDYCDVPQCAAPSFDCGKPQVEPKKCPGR
T4 sequence (P00747 581-810 limits assumed): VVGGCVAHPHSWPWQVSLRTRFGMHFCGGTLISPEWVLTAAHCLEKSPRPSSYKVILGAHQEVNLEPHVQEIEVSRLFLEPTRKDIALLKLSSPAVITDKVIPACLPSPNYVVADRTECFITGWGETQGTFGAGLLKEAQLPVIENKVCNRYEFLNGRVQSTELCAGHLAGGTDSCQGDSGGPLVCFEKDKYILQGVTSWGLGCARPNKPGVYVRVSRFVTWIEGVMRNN
Procedure: as §1, §2

[5] = tested on: fibrinolysis in whole blood; assay: Thromboelastometric (ROTEM) analysis of clot formation and fibrinolysis in whole blood; set-up: species or system human; details: for clotting time (CT, coagulation time) / lysis of the clot in 45 min (from LI45): human whole blood; for clotting time (CT, coagulation time): control 174 s; for lysis of the clot in 45 min (from LI45): whole blood alone about 61 %; for LOT lysis onset time (clot amplitude reduced by 15 %) / LT lysis time (clot reduced/lysed by 90 %) / LI30 lysis index, amplitude of clot after 30 min / LI45 lysis index, amplitude of clot after 45 min / LI60 lysis index, amplitude of clot after 60 min: recalcified human whole blood; for LOT lysis onset time (clot amplitude reduced by 15 %) / LT lysis time (clot reduced/lysed by 90 %): 140 ng/ml TF, 125 ng/ml tPA; for LI30 lysis index, amplitude of clot after 30 min / LI45 lysis index, amplitude of clot after 45 min / LI60 lysis index, amplitude of clot after 60 min: TF + tPA
Procedure: Five healthy volunteers, men (age range: 25–34 years)) with normal blood cell counts were entered into the study. Healthy volunteers had not taken medication known to affect platelet function and/or coagulation for at least 10 days before blood sampling.
Blood was stored at room temperature for 30 min after venipuncture and then was evaluated by thromboelastometric analyses.
Thromboelastometric measurements were performed using ROTEM system (Tem International GmbH, Manheim, Germany). […] We measured the parameters characterized kinetic of clot formation (clotting time, alpha angle), clot strength (maximal clot firmness; MCF), and fibrinolysis (percentage reduction of MCF, clot lysis time).

[6] = tested on: MDA-MB-231 cells; assay: Cytotoxicity assay (method of Plumb et al.); type: cell-based; details: 10, 100, 250, 500 and 1000 μM
Procedure: (§3) All studies were performed on MCF-7, MDA-MB-231 and DLD cells lines were purchased from American Type Culture Collection (Rockville, MD). The cells were maintained in DMEM supplemented with 5 % fetal bovine serum (FBS), […] glutamine, 50 U/ml penicillin, […] streptomycin at 37 °C in a 5 % CO2 incubator.
(§4) The toxicity of the evaluated peptides was determined by the method of Plumb et al. ([1989]) in 10, 100, 250, 500 and 1000 μM concentrations. MCF-7, MDA-MB-231 and DLD cells were maintained as described above. The detailed description of the method is given by (Markowska et al. [2013]).

[7] = tested on: colon cancer cell line DLD-1; assay: Cytotoxicity assay (method of Plumb et al.); type: cell-based; details: 10, 100, 250, 500 and 1000 μM
Procedure: as §3, §4

[8] = tested on: MCF-7 cells; assay: Cytotoxicity assay (method of Plumb et al.); type: cell-based; details: 10, 100, 250, 500 and 1000 μM
Procedure: as §3, §4

[9] = tested on: trypsin; assay: Amidolytic activity of trypsin (substrate Bzl-L-Arg-pNA); type: biochemical; details: for IC50: amidolytic activity, Bzl-L-Arg-pNA, borane buffer pH 7.5
Procedure: as §1, §2

[10] = tested on: kallikrein; assay: Amidolytic activity of kallikrein (substrate S-2266); type: biochemical; details: maximum concentration 20 mM, S-2266, pH 9.0
Procedure: as §1, §2

[11] = tested on: fibroblast cells; assay: Cytotoxicity assay, normal cells; type: cell-based
[12] = biological target: T4, plasmin; details: ref Midura-Nowaczek et al. [1990]; cited from earlier work
[13] = listed as H–Ala–Phe–Lys–EACA–NH2

Molecule: NCCCCCC(=O)O [EACA, 6-aminohexanoic acid]
- clotting time (CT, coagulation time) [5]: 137 s
- lysis of the clot in 45 min (from LI45) [5]: 1%
- LOT lysis onset time (clot amplitude reduced by 15 %) [5]: ≥4084 s
- LT lysis time (clot reduced/lysed by 90 %) [5]: ≥168 min
- LI30 lysis index, amplitude of clot after 30 min [5]: 100%
- LI45 lysis index, amplitude of clot after 45 min [5]: 98%
- LI60 lysis index, amplitude of clot after 60 min [5]: 92%
- effect on amidolytic activity of uPA (in words) ([1]; maximum concentration 20 mM): No effect
- effect on amidolytic activity of thrombin (in words) ([2]; maximum concentration 20 mM): No effect
- cytotoxic effect / viability of MDA-MB-231 cells [6]: did not display cytotoxicity
- cytotoxic effect / viability of DLD-1 cells [7]: did not display cytotoxicity
- cytotoxic effect / viability of MCF-7 cells [8]: did not display cytotoxicity
- effect on amidolytic activity of trypsin (in words) ([9]; maximum concentration 20 mM): No effect
- effect on amidolytic activity of tPA (in words) ([3]; maximum concentration 20 mM): No effect
- effect on amidolytic activity of plasmin (in words) ([4]; maximum concentration 20 mM): No effect
- influence on the enzymatic activity of kallikrein [10]: No effect
- cytotoxic effect / viability of fibroblast cells [11]: did not display cytotoxicity

Molecule: NCCCC[C@H](NC(=O)[C@@H](N)Cc1ccccc1)C(=O)NCCCCCC(N)=O [Compound 6, H–Phe–Lys–EACA–NH2] (H-Phe-Lys-[Ahx]-NH2)
- IC50 [1]: > 20 mM
- IC50 [2]: > 20 mM
- IC50 [9]: > 20 mM
- IC50 [3]: > 20 mM
- IC50 [4]: 1.43 ± 0.11 mM

Molecule: C[C@H](N)C(=O)N[C@@H](Cc1ccccc1)C(=O)N[C@@H](CCCCN)C(=O)NCCCCCC(N)=O [Compound 8, H–Ala–Phe–Lys–EACA–NH2] (H-AFK[Ahx]-NH2)
- clotting time (CT, coagulation time) [5]: 135 s
- lysis of the clot in 45 min (from LI45) [5]: 14%
- LOT lysis onset time (clot amplitude reduced by 15 %) [5]: 2731 s
- LT lysis time (clot reduced/lysed by 90 %) [5]: about 67 min
- LOT lysis onset time (clot amplitude reduced by 15 %) [5, 13]: 2731 ± 160 s
- LT lysis time (clot reduced/lysed by 90 %) [5, 13]: 76 ± 6 min
- LI30 lysis index, amplitude of clot after 30 min [5]: 99%
- LI45 lysis index, amplitude of clot after 45 min [5]: 86%
- LI60 lysis index, amplitude of clot after 60 min [5]: 43%
- IC50 [1]: > 20 mM
- IC50 [2]: 7.59 ± 0.61 mM
- IC50 [9]: > 20 mM
- IC50 [3]: > 20 mM
- IC50 [4]: 0.13 ± 0.01 mM

Molecule: C[C@H](N)C(=O)N[C@@H](Cc1ccccc1)C(=O)NCCCCCC(N)=O [Compound 10, H–Ala–Phe–EACA–NH2] (H-Ala-Phe-[Ahx]-NH2)
- IC50 [1]: 2.61 ± 0.21 mM
- IC50 [2]: > 20 mM
- IC50 [3]: > 20 mM
- IC50 [4]: > 20 mM

Molecule: NCCCCCC(N)=O [H–EACA–NH2, reference compound]
- clotting time (CT, coagulation time) [5]: 117 s
- lysis of the clot in 45 min (from LI45) [5]: 20%
- LOT lysis onset time (clot amplitude reduced by 15 %) [5]: 2488 ± 172 s
- LT lysis time (clot reduced/lysed by 90 %) [5]: 71 ± 5 min
- LI30 lysis index, amplitude of clot after 30 min [5]: 96%
- LI45 lysis index, amplitude of clot after 45 min [5]: 80%
- LI60 lysis index, amplitude of clot after 60 min [5]: 32%

Molecule: H–Ala–Phe–Lys–NH–(CH2)5–NH2
- plasmin inhibitory activity [12]: no plasmin inhibitory activity

The next lines start with the values.

- IC50 [1]: > 20 mM
- IC50 [2]: > 20 mM
- IC50 [3]: > 20 mM
- IC50 [4]: 4.82 ± 0.39 mM
Molecule: NCCCCCNC(=O)CCCCCNC(=O)[C@H](CCCCN)NC(=O)[C@@H](N)Cc1ccccc1 [Compound 11, H–Phe–Lys–EACA–NH–(CH2)5–NH2]

- IC50 [1]: > 20 mM
- IC50 [2]: 3.85 ± 0.31 mM
- IC50 [3]: 14.4 ± 1.15 mM
- IC50 [4]: 3.37 ± 0.27 mM
Molecule: C[C@@H](N)C(=O)N[C@@H](Cc1ccccc1)C(=O)N[C@@H](CCCCN)C(=O)NCCCCCC(=O)O [Compound 2, H–D-Ala–Phe–Lys–EACA–OH] (H-[dA]FK[Ahx]-OH)

- IC50 [1]: > 20 mM
- IC50 [2]: > 20 mM
- IC50 [3]: > 20 mM
- IC50 [4]: 11.4 ± 0.91 mM
Molecule: NCCCC[C@H](NC(=O)[C@@H](N)Cc1ccccc1)C(=O)NCCCCCC(=O)O [Compound 1, H–Phe–Lys–EACA–OH] (H-Phe-Lys-[Ahx]-OH)

- IC50 [1]: > 20 mM
- IC50 [2]: > 20 mM
- IC50 [9]: > 20 mM
- IC50 [3]: > 20 mM
- IC50 [4]: 1.11 ± 0.09 mM
Molecule: C[C@@H](N)C(=O)N[C@@H](Cc1ccccc1)C(=O)N[C@@H](CCCCN)C(=O)NCCCCCC(=O)NCCCCCN [Compound 12, H–D-Ala–Phe–Lys–EACA–NH–(CH2)5–NH2]

- IC50 [1]: > 20 mM
- IC50 [2]: 5.04 ± 0.4 mM
- IC50 [3]: 17.6 ± 1.41 mM
- IC50 [4]: 4.82 ± 0.39 mM
Molecule: C[C@H](N)C(=O)N[C@@H](Cc1ccccc1)C(=O)N[C@@H](CCCCN)C(=O)NCCCCCC(=O)O [Compound 3, H–Ala–Phe–Lys–EACA–OH] (H-AFK[Ahx]-OH)
